These results are taken from US20140363454A1, “Antibody-Drug Conjugates, Compositions and Methods of Use” (Igenica Biotherapeutics, Inc., priority 2013, published 2014).

The test system of the data set is BT474 (HER2+) cell line. Put plainly: Standard cellular cytotoxicity assay, BT474 (HER2+) cell line. The data set is classed as cell-based, human. An excerpt: The cytotoxicity of tubulysins T1 and T2 was compared to the cytotoxicity of MMAF using the BT474 (HER2+) cell line in a standard cellular cytotoxicity assay.

Read-outs that look alike come from different tables or passages of the source. Where a SMILES comes first, the peptide text is derived from it. [ ]: non-standard residue; d: D form. Dolaproine = CO[C@@H]([C@@H]1CCCN1)[C@@H](C)C(=O)O; Dil = CC[C@H](C)[C@H](NC)[C@@H](CC(=O)O)OC; NMeV = CN[C@H](C(=O)O)C(C)C

In turn, `CC[C@H](C)[C@H](NC(=O)[C@H]1CCCCN1C)C(=O)N(C)[C@H](C[C@@H](OC(C)=O)c1nc(C(=O)O)cs1)C(C)C` [Entry T1] displayed a concentration for half-maximal inhibition (IC50) (Homo sapiens, BT-474) of 11 nM.
In the case of `CC[C@H](C)[C@H](NC(=O)[C@H]1CCCCN1C)C(=O)N(C)[C@H](C[C@@H](OC(C)=O)c1nc(C(=O)N[C@@H](Cc2ccccc2)C[C@H](C)C(=O)O)cs1)C(C)C` [Entry T2], the half-inhibitory concentration (IC50) (Homo sapiens, BT-474) is less than 0.1 nM.
As to `CC[C@H](C)[C@@H]([C@@H](CC(=O)N1CCC[C@H]1[C@H](OC)[C@@H](C)C(=O)N[C@@H](Cc1ccccc1)C(=O)O)OC)N(C)C(=O)[C@@H](NC(=O)[C@@H](NC)C(C)C)C(C)C` [MMAF, monomethylauristatin F] (H-[NMeV]V[Dil][Dolaproine]F-OH), the IC50 was 93 nM.
